Data on 21 molecules can be found in patent US6403617B1, “Diaminopyridine-containing thiourea inhibitors of herpes viruses” (American Home Products Corp., priority 1998, dated 2002).

Converted amounts (≈) assume the structure as drawn. A value given as a limit tells only on which side of the number the result lay.

Assay [1] concerns HCMV wild-type. In words: HCMV yield assay. It counts as cell-based, Human Cytomegalovirus. Particulars: human foreskin fibroblasts, reduction of virus yield by 50%; for IC50: Human betaherpesvirus 5, Fibroblast, read-out: IC50 (ug/ml) HCMV. The procedure: Yield assay. Monolayer cultures of human foreskin fibroblasts are infected with HCMV wild-type, typically at a multiplicity of infection equal to 0.2, in the presence of inhibitor compound (varying concentrations). At three days post-infection, total virus produced in these cultures (i.e. virus yield) is assessed by harvesting and titering the virus in 12-well plates of cultured human foreskin fibroblasts (done in the absence of inhibitor). Plaques are quantified at 2 weeks post-infection. An inhibitor of HCMV is identified by the reduction in titer of virus yield in the presence, compared to the titer in the absence of compound. In this assay, the relative anti-HCMV activity of an inhibitor is typically determined by calculating the IC50 or IC90 value, that is, the amount of compound required to reduce the virus yield by 50% or 90%, respectively. Table I describes IC50 data for compounds tested against HCMV.

Assay [2] deals with HSV-1. Kind of assay: HSV Antiviral (ELISA) Assay. It counts as cell-based, herpes simplex virus type 1. Particulars: Vero cells, HSV-1, about 24 hours post-infection; for IC50: Human alphaherpesvirus 1, read-out: IC50 (ug/ml) HSV. The procedure: Vero cells (ATCC #CCL-81) are plated on 96-well tissue cultugre plates at 3.5×10^4 cells per 100 μl tissue culture DMEM (Dulbecco's modified Eagle media) supplemented with 2% fetal bovine serum (FBS) in each well. After overnight incubation @ 37° C. (in 5% CO2) and 30 minutes prior to infection with HSV-1 (multiplicity of infection equal to 0.006), cells are either untreated, or treated with test compound (multiple concentrations) or reference standard drug control. After approximately 24 hours post-infection incubation @ 37° C. (in 5% CO2), cells are fixed for ELISA assay. The primary antibody is murine anti-HSV glycoprotein D monoclonal primary antibody and the secondary antibody is goat anti-mouse IgG linked to β-galactosidase. Thus the extent of viral replication is determined by assessing β-galactosidase activity by quantifying the generation of the 4-methyl umbelliferone fluorescent cleavage product after addition of the methyl umbelliferyl-β-D-galactoside (Sigma #M1633) substrate on a microfluorimeter (365 nm for excitation and 450 nm for emission). Antiviral activity (IC50) of the test compound is determined by comparing the flourescence obtained in absence of compound to that obtained in the presence of compound.

In assay [3] the test system is VZV strain Ellen. In words: VZV Antiviral (ELISA) Assay. It counts as cell-based, varicella-zoster virus. Particulars: human foreskin fibroblast cells, three days; for inhibition at 10 µg/mL / IC50: Human alphaherpesvirus 3, 72 h; for inhibition at 10 µg/mL: read-out: % inhibition 10 ug/ml VZV; for IC50: read-out: IC50 (ug/ml) VZV. The procedure:
For the generation of stock VZV to be used in the assay, VZV strain Ellen (ATCC #VR-1367) is used to infect human foreskin fibroblast (HFF) cells at low multiplicity (less than 0.1) and incubated overnight at 37° C. in 5% CO2. After the overnight incubation, the mixture of uninfected and VZV-infected HFF infected cells are then harvested and added to each well of 96-well plates (3.5×10^4 cells in 100 μl DMEM supplemented with 2% FBS) which contain test compound or the reference standard drug control (in 100 μl DMEM supplemented with 2% FBS per well). These cells are incubated for three days at 37° C. in 5% CO2, then fixed for ELISA assay. The primary antibody is murine anti-VZV glycoprotein II monoclonal antibody (Applied Biosystems, Inc. #13-145-100) and the secondary antibody is goat anti-mouse IgG linked to β-galactosidase. Thus the extent of viral replication is determined by assessing β-galactosidase activity by quantifying the generation of the 4-methyl umbelliferone fluorescent cleavage product after addition of the methyl umbelliferyl-β-D-galactoside (Sigma #M1633) substrate on a microfluorimeter (365 nm for excitation and 450 nm for emission). Antiviral activity (IC50) of the test compound is determined by comparing the flourescence obtained in absence of compound to that obtained in the presence of compound.

For `COc1cc(OC)c(NC(=S)Nc2cccnc2NC(=O)c2ccco2)cc1Cl` [Example 284, Furan-2-carboxylic acid {3-[3-(5-chloro-2,4-dimethoxy-phenyl)-thioureido]-pyridin-2-yl}-amide], the IC50 in assay [1] was 0.4 µg/mL (≈ 0.924 µM); in assay [2], 3 µg/mL (≈ 6.93 µM); in assay [3], greater than 15 µg/mL. Besides, in assay [3] (10 ug/ml), the inhibition at 10 µg/mL is 100%.
Turning to `CC(NC(=S)Nc1ccc(NC(=O)c2cscn2)nc1)c1ccc(Cl)c(F)c1` (centres unmarked) [Example 826, N-{5-[({[1-(4-chloro-3-fluorophenyl)ethyl]amino}carbothioyl)amino]-2-pyridinyl}-1,3-thiazole-4-carboxamide], the values for the IC50 in assay [1] and in assay [3] were 0.02 µg/mL (≈ 0.0459 µM) and 0.86 µg/mL (≈ 1.97 µM), respectively.
With `CC(NC(=S)Nc1ccc(NC(=O)c2cscn2)nc1)c1cccc(C(F)(F)F)c1` (centres unmarked) [Example 824, N-(5-{[({1-[3-(trifluoromethyl)phenyl]ethyl}amino)carbothioyl]amino}-2-pyridinyl)-1,3-thiazole-4-carboxamide], the IC50 in assay [1] stood at 0.004 µg/mL (≈ 0.00886 µM); in assay [3], 3.2 µg/mL (≈ 7.09 µM).
For the molecule `COc1cc(OC)c(NC(=S)Nc2cccnc2NC(=O)c2csnn2)cc1Cl` [Example 498, [1,2,3]Thiadiazole-4-carboxylic acid {3-[3-(5-chloro-2,4-dimethoxy-phenyl)-thioureido]-pyridin-2-yl}-amide], the IC50 in assay [1] was 0.14 µg/mL (≈ 0.31 µM); in assay [2] it was 6 µg/mL (≈ 13.3 µM); in assay [3], greater than 10 µg/mL. Besides, the inhibition at 10 µg/mL in assay [3] (10 ug/ml) worked out at 14%.
For `COc1cc(OC)c(NC(=S)Nc2ccc(NC(=O)c3ccccc3F)cn2)cc1Cl` [Example 507, N-{6-[3-(5-Chloro-2,4-dimethoxy-phenyl)-thioureido]-pyridin-3-yl}-2-fluoro-benzamide] the same measures were 1.2 µg/mL (≈ 2.6 µM), 10 µg/mL (≈ 21.7 µM), 4 µg/mL (≈ 8.68 µM) and 90%.
Regarding `COc1cc(OC)c(NC(=S)Nc2ccc(NC(=O)c3ccccc3F)nc2)cc1Cl` [Example 289, N-{5-[3-(5-Chloro-2,4-dimethoxy-phenyl)-thioureido]-pyridin-2-yl}-2-fluoro-benzamide], the IC50 in assay [1] was greater than 10 µg/mL; in assay [2], 0.6 µg/mL (≈ 1.3 µM); in assay [3] it was greater than 10 µg/mL. Besides, the inhibition at 10 µg/mL in assay [3] (10 ug/ml) amounted to 30%.
`CC(NC(=S)Nc1ccc(NC(=O)c2cscn2)nc1)c1cc(F)cc(C(F)(F)F)c1` (centres unmarked) [Example 820, N-(5-{[({1-[3-fluoro-5-(trifluoromethyl)phenyl]ethyl}amino)carbothioyl]amino}-2-pyridinyl)-1,3-thiazole-4-carboxamide]: the results for the IC50 in assay [1] and in assay [3] were 0.0013 µg/mL (≈ 0.00277 µM) and 3.4 µg/mL (≈ 7.24 µM), respectively.
For “Pyridine-2-carboxylic acid {6-[3-(5-chloro-2,4-dimethoxy-phenyl)-thioureido]-pyridin-3-yl}-amide [Example 506]”, in assay [1], the “IC50 (ug/ml) HCMV” value was greater than 10 µg/mL. Moreover, in assay [2], the “IC50 (ug/ml) HSV” value was greater than 10 µg/mL. Besides, the “% inhibition 10 ug/ml VZV” value in assay [3] (10 ug/ml) came to 68%. The “IC50 (ug/ml) VZV” value in assay [3] was greater than 10 µg/mL.
For the molecule `O=C(Nc1ccc(NC(=S)NCc2cc(C(F)(F)F)cc(C(F)(F)F)c2)cn1)c1csnn1` [Example 815, N-{5-[({[3,5-bis(trifluoromethyl)benzyl]amino}carbothioyl)amino]-2-pyridinyl}-1,2,3-thiadiazole-4-carboxamide], the IC50 in assay [1] was 0.0024 µg/mL (≈ 0.00474 µM); in assay [3] it was greater than 7.5 µg/mL.
In the case of `COc1cc(OC)c(NC(=S)Nc2ccc(NC(=O)c3ccccn3)nc2)cc1Cl` [Example 499, Pyridine-2-carboxylic acid {5-[3-(5-chloro-2,4-dimethoxy-phenyl)-thioureido]-pyridin-2-yl}-amide], the values for the IC50 in assay [1], in assay [2] and in assay [3] were 3 µg/mL (≈ 6.76 µM), 5 µg/mL (≈ 11.3 µM) and greater than 10 µg/mL, respectively. For the same molecule, the inhibition at 10 µg/mL in assay [3] (10 ug/ml) came out at 25%.
As for “N-(6-{[({(1S)-1-[3,5-bis(trifluoromethyl)phenyl]ethyl}amino)carbothioyl]amino}-3-pyridinyl)-1,2,3-thiadiazole-4-carboxamide [Example 829]”, the “IC50 (ug/ml) HCMV” value in assay [1] was determined as 0.08 µg/mL. For the same molecule, in assay [3], the “IC50 (ug/ml) VZV” value was greater than 7.5 µg/mL.
With `C[C@H](NC(=S)Nc1ccc(NC(=O)c2csnn2)nc1)c1cc(C(F)(F)F)cc(C(F)(F)F)c1` [Example 816, N-(5-{[({(1S)-1-[3,5-bis(trifluoromethyl)phenyl]ethyl}amino)carbothioyl]amino}-2-pyridinyl)-1,2,3-thiadiazole-4-carboxamide], the IC50 is 0.0015 µg/mL (≈ 0.00288 µM) in assay [1] and greater than 7.5 µg/mL in assay [3].
For `C[C@H](NC(=O)Nc1ccc(NC(=O)c2cscn2)nc1)c1cc(C(F)(F)F)cc(C(F)(F)F)c1` [Example 821, N-(5-{[({(1S)-1-[3,5-bis(trifluoromethyl)phenyl]ethyl}amino)carbonyl]amino}-2-pyridinyl)-1,3-thiazole-4-carboxamide] the same measures were 0.014 µg/mL (≈ 0.0278 µM) and greater than 7.5 µg/mL.
Consider `CC(NC(=S)Nc1ccc(NC(=O)c2cscn2)nc1)c1ccc(Cl)cc1F` (centres unmarked) [Example 827, N-{5-[({[1-(4-chloro-2-fluorophenyl)ethyl]amino}carbothioyl)amino]-2-pyridinyl}-1,3-thiazole-4-carboxamide], for which the IC50 in assay [1] was 0.026 µg/mL (≈ 0.0596 µM).
Consider `CC(NC(=S)Nc1ccc(NC(=O)c2cscn2)nc1)c1cc(C(F)(F)F)ccc1F` (centres unmarked) [Example 818, N-(5-{[({1-[2-fluoro-5-(trifluoromethyl)phenyl]ethyl}amino)carbothioyl]amino}-2-pyridinyl)-1,3-thiazole-4-carboxamide], for which the IC50 is 0.0022 µg/mL (≈ 0.00469 µM) in assay [1] and greater than 7.5 µg/mL in assay [3].
With “N-{6-[({[1-(4-fluorophenyl)ethyl]amino}carbothioyl)amino]-3-pyridinyl}-1,2,3-thiadiazole-4-carboxamide [Example 828]”, the “IC50 (ug/ml) HCMV” value in assay [1] is 0.45 µg/mL. The “IC50 (ug/ml) VZV” value in assay [3] is greater than 7.5 µg/mL.
Turning to `CC(NC(=S)Nc1ccc(NC(=O)c2cscn2)nc1)c1ccc(C(F)(F)F)cc1F` (centres unmarked) [Example 819, N-(5-{[({1-[2-fluoro-4-(trifluoromethyl)phenyl]ethyl}amino)carbothioyl]amino}-2-pyridinyl)-1,3-thiazole-4-carboxamide], the IC50 is 0.0022 µg/mL (≈ 0.00469 µM) in assay [1] and greater than 7.5 µg/mL in assay [3].
For `CC(NC(=S)Nc1ccc(NC(=O)c2cscn2)nc1)c1cccc(Br)c1` (centres unmarked) [Example 822, N-{5-[({[1-(3-bromophenyl)ethyl]amino}carbothioyl)amino]-2-pyridinyl}-1,3-thiazole-4-carboxamide], the figures for the IC50 in assay [1] and in assay [3] were 0.05 µg/mL (≈ 0.108 µM) and greater than 7.5 µg/mL, respectively.
For `CC(NC(=S)Nc1ccc(NC(=O)c2cscn2)nc1)c1ccccc1Br` (centres unmarked) [Example 823, N-{5-[({[1-(2-bromophenyl)ethyl]amino}carbothioyl)amino]-2-pyridinyl}-1,3-thiazole-4-carboxamide] the same measures were 0.05 µg/mL (≈ 0.108 µM) and greater than 7.5 µg/mL.
For `C[C@H](NC(=S)Nc1ccc(NC(=O)c2cscn2)nc1)c1cc(C(F)(F)F)cc(C(F)(F)F)c1` [Example 817, N-(5-{[({(1S)-1-[3,5-bis(trifluoromethyl)phenyl]ethyl}amino)carbothioyl]amino}-2-pyridinyl)-1,3-thiazole-4-carboxamide] the same measures were 0.001 µg/mL (≈ 0.00192 µM) and greater than 7.5 µg/mL.
For `CC(NC(=S)Nc1ccc(NC(=O)c2cscn2)nc1)c1ccc(Cl)c(C(F)(F)F)c1` (centres unmarked) [Example 825, N-(5-{[({1-[4-chloro-3-(trifluoromethyl)phenyl]ethyl}amino)carbothioyl]amino}-2-pyridinyl)-1,3-thiazole-4-carboxamide] the same measures were 0.003 µg/mL (≈ 0.00617 µM) and 6.12 µg/mL (≈ 12.6 µM).
